Measurements: patent publication US9144633B2, “Implantable devices coated with insulin-mimetic vanadium compounds and methods thereof” (RUTGERS, THE STATE UNIVERSITY OF NEW JERSEY, priority 2010, dated 2015)
Read-outs that look alike come from different tables or passages of the source.

Columns and labels:
bone fracture = assay: Local VAC application without a carrier, fracture healing (preliminary data); assay type: in vivo; conditions: at the dosages tested
From the text: This evidence opens up many future applications to the use of VAC alone, or incorporated with a carrier as an option for fracture healing.

bone homeostasis = conditions: cited from earlier work
[1] = cited from earlier work
kidney and liver = conditions: VAC treatment; cited from earlier work

## CC(=O)/C=C(/C)[O-].CC(=O)/C=C(/C)[O-].[O]=[V+2] [VAC, vanadyl acetylacetonate]
Bone fracture
  speed of bone healing versus saline controls: more than twice as rapidly as saline controls
Bone homeostasis; diabetic rats
  effect on bone parameters: improved the ultimate strength, Tb,Th, MAR, and plasma osteocalcin
Bone homeostasis; normal rats
  effect on bone parameters: did not affect any bone parameters
[1]; after several days
  tolerance / signs of toxicity: no signs of toxicity
[1]; widely distributed to all tissues
  tissue distribution / accumulation: greatest accumulation was within femur tissue
Kidney and liver
  function or structure of kidney and liver: does not impair the function or structure of kidney and liver
